100 compounds from PubChem BioAssay AID1949 (Southern Research Institute, 2009) can be followed below.

Converted amounts (≈) assume the structure as drawn. Records with an inconclusive call do not appear. The source made the active and inactive calls. The rule behind the calls is not given here. Some results are limits rather than exact numbers.

The test system of this assay is M. tuberculosis H37Rv growth inhibition. In words: Mycobacterium tuberculosis H37Rv growth inhibition, cell based, confirmatory dose response (AID 1949).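 Note: bacteria grown 7 days with compound before Alamar blue readout.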

As usually defined, the IC50 is the concentration needed to halve the response being measured. For `Cc1cc(Br)c2[nH]c(O)c(N=NC(=O)COc3ccc4ccccc4c3)c2c1`, the IC50 was 12 µg/mL (≈ 27.5 µM).
Consider `CC(=O)N/C(=N/c1nc(C)cc(C)n1)Nc1ccc(C)cc1C`, for which the IC50 was > 50 µg/mL (inactive).
As for `O=C(NCc1cccs1)c1cc2n(n1)C(C(F)(F)F)CC(c1ccc3c(c1)OCO3)N2` (stereo not given), the figure is 1.5 µg/mL (≈ 3.33 µM); as for `COC(=O)c1c(C)oc2ccc(OC(=O)c3ccc([N+](=O)[O-])cc3)cc12`, > 50 µg/mL (inactive); as for `COc1ccc(CC(=O)Nc2ccc(-c3nc4ccccc4c(=O)o3)cc2)cc1`, 15.1 µg/mL (≈ 39 µM).
As for `C=CCn1c(O)c(C2=c3ccccc3=NC2=O)sc1=N`, the figure is less than 0.1 µg/mL; as for `COC(=O)c1cc(NC(=O)Nc2cccc(Cl)c2)cc(C(=O)OC)c1`, 0.18 µg/mL (≈ 0.496 µM); as for `Nc1c2c(nc3sc4c(c13)CCCC4)CCCC2`, 0.6 µg/mL (≈ 2.32 µM).
`CCc1ccc(OCC(=O)NNC(=O)c2cnccn2)c(Br)c1`: the IC50 was 1.12 µg/mL (≈ 2.95 µM).
As for `Cc1ccc(-c2csc(-c3ccncc3)n2)cc1C`, the figure is 1.85 µg/mL (≈ 6.95 µM); as for `N#Cc1cc2c(ccc3ccccc32)oc1=O`, 2.12 µg/mL (≈ 9.58 µM).
As for `CC(C)(C)c1ccc(C(=O)NC(=S)Nc2cccc(C#N)c2)cc1`, the figure is > 50 µg/mL (inactive); as for `Cc1nc2c(o1)C1(C(=O)N2C)C(C#N)=C(N)N(c2ccccc2)c2ccccc21` (stereo not given), 6.25 µg/mL (≈ 16.3 µM).
The figure for `CCOC(=O)c1cc(=O)c(-c2ccccc2)n[nH]1` is 3.8 µg/mL (≈ 15.6 µM); for `Cc1ccc(C(=O)N2CCN(c3ccc(NC(=O)COc4ccccc4Cl)cc3)CC2)cc1` it is 6.08 µg/mL (≈ 13.1 µM); for `Cc1cc2c(cc1C)N(Cc1ccc(C(C)(C)C)cc1)C1=NCCCN12` it is 1.2 µg/mL (≈ 3.45 µM).
Consider `c1ccc(CCNc2nc3ccccc3[nH]2)cc1`, for which the half-inhibitory concentration (IC50) was 2.94 µg/mL (≈ 12.4 µM).
Turning to `CCOC(=O)C1=C(C)N=c2s/c(=C\c3ccc([N+](=O)[O-])o3)c(=O)n2C1c1ccc(OCC)cc1` (stereo not given), the IC50 is > 50 µg/mL (inactive).
For the compound `CCCCC(=O)NC(=S)Nc1ccc(N2CCN(C(=O)c3ccco3)CC2)c(Cl)c1`, the IC50 is 0.67 µg/mL (≈ 1.49 µM).
As for `Cc1cccc2c1N(CCOc1ccc(C(C)(C)C)cc1)C(=O)C2=O`, the IC50 was > 50 µg/mL (inactive).
As for `Cc1ccc(N2C(=O)c3cccc4c(N5CCN(C)CC5)ccc(c34)C2=O)c2cccnc12`, the figure is 49.3 µg/mL (≈ 113 µM); as for `O=C(Nc1ccccc1Cl)c1cc2cc(Cl)cc(Cl)c2oc1=O`, > 50 µg/mL (inactive); as for `OC(COc1ccc2ccccc2c1Br)Cn1ccnc1` (stereo not given), 5.39 µg/mL (≈ 15.5 µM).
The figure for `Cc1c(NC(=O)Nc2cccc(C(F)(F)F)c2)cccc1[N+](=O)[O-]` is 2.93 µg/mL (≈ 8.64 µM); for `CCOC(=O)c1c(NC(=O)COc2ccccc2C)sc(C(=O)N2CCCC2)c1C` it is > 50 µg/mL (inactive).
Regarding `Cc1cc(=O)oc2c(C)c(OCC(=O)OCc3ccccc3)ccc12`, the IC50 is 2.11 µg/mL (≈ 6.24 µM).
As for `Cc1cc(Oc2nc([N+](=O)[O-])nn2C)ccc1Cl`, the figure is 5.88 µg/mL (≈ 21.9 µM).
Take `CCC(C(=O)O/N=C(\N)Cc1cccc2ccccc12)c1ccccc1` (stereo not given): the IC50 was 10.1 µg/mL (≈ 29.2 µM).
As for `C/C=C/c1ccc(OCCCOc2cccc3ccc(C)nc23)c(OC)c1`, the figure is 16.8 µg/mL (≈ 46.3 µM); as for `CC(C)(C)c1ccc(-c2nn3c(Cc4ccccc4)nnc3s2)cc1`, > 50 µg/mL (inactive).
As to `COC(=O)C(C)Oc1ccc2c(=O)c(Oc3ccccc3Cl)coc2c1` (stereo not given), the IC50 was 8.57 µg/mL (≈ 22.9 µM).
The figure for `S=C(NCCc1ccc(Cl)cc1)Nc1ccc(Nc2ccccc2)cc1` is 2.09 µg/mL (≈ 5.47 µM).
As for `COc1ccc(-c2csc(Nc3ncccc3C)n2)cc1`, the figure is 24.5 µg/mL (≈ 82.5 µM); as for `O=C(NC(=S)N1CCCC1)c1ccc(-c2ccccc2)cc1`, 1.43 µg/mL (≈ 4.61 µM); as for `CCC(=O)N1CCN(c2ccc(Cl)cc2NC(=O)CC23CC4CC(CC(C4)C2)C3)CC1`, 6.98 µg/mL (≈ 15.7 µM).
As for `CCN(CC)c1ccc(NC(=O)c2cnccn2)cc1`, the figure is 2.37 µg/mL (≈ 8.77 µM); as for `O=S1(=O)C=C(Sc2nnc(-c3ccncc3)o2)c2ccccc21`, 1.33 µg/mL (≈ 3.87 µM); as for `CCC(=O)Oc1cccc2ccc(/C=C/c3ccccc3F)nc12`, less than 0.1 µg/mL.
With `COc1ccccc1NC(=O)c1cnc(SC)nc1`, the IC50 is 3.97 µg/mL (≈ 14.4 µM).
As to `COC(=O)c1c(NC(=O)c2cc3ccccc3oc2=O)sc2c1CCC2`, the IC50 is 4.29 µg/mL (≈ 11.6 µM).
As for `COc1ccc(Nc2ccnc3cc4ccccc4cc23)cc1`, the figure is 0.74 µg/mL (≈ 2.46 µM); as for `O=C(Nc1ccccc1-c1ccccc1)C(Cl)(Cl)Cl`, 2.44 µg/mL (≈ 7.76 µM).
As for `CC(=O)c1ccc(COC(=O)c2ccc([N+](=O)[O-])cc2Cl)cc1`, the figure is 40.7 µg/mL (≈ 122 µM).
The figure for `Cc1cccc2sc(NC(=O)c3ccc(C(C)(C)C)cc3)nc12` is 1.39 µg/mL (≈ 4.28 µM).
Regarding `Cc1ccc(/C=C/[N+](=O)[O-])cc1Br`, the IC50 was 239 µg/mL (≈ 987 µM).
As for `Cc1cc(C)nc(/N=C(/N)Nc2cc(Oc3ccccc3)ccc2Cl)n1`, the figure is 4.87 µg/mL (≈ 13.2 µM); as for `COc1cccc(C2=CC(c3c(F)cccc3Cl)n3nnnc3N2)c1` (stereo not given), 7.55 µg/mL (≈ 21.1 µM); as for `Cc1ccc(-c2nc(C#N)c(NCCCn3ccnc3)o2)cc1`, > 50 µg/mL (inactive).
As for `Nc1nc2ccccc2n1CCOc1ccc(Cl)cc1Cl`, the figure is 3.85 µg/mL (≈ 11.9 µM); as for `Clc1ccc(OCCn2ccnc2)cc1Cl`, 7.53 µg/mL (≈ 29.3 µM).
On to `O=[N+]([O-])/C=C/c1cccn1-c1ccc(Cl)cc1`, for which the IC50 was 9.66 µg/mL (≈ 38.8 µM).
As for `C=CCn1c(Sc2ccc(C(F)(F)F)cc2[N+](=O)[O-])nnc1-c1ccccc1Cl`, the figure is 0.19 µg/mL (≈ 0.431 µM).
The figure for `COc1cccc(NC(=O)CSc2ccc(Br)cc2)c1` is 11.7 µg/mL (≈ 33.2 µM).
Turning to `O=C(CNS(=O)(=O)c1ccc([N+](=O)[O-])cc1)OCc1c(F)cccc1Cl`, the IC50 was 17.3 µg/mL (≈ 43 µM).
The figure for `CCOC(=O)c1ccc(NC(=S)Nc2ccc(F)c(Cl)c2)cc1` is 0.28 µg/mL (≈ 0.794 µM); for `Cc1cccc(Nc2nc(NCc3ccco3)c3ccccc3n2)c1` it is 1.86 µg/mL (≈ 5.63 µM).
In the case of `O=[N+]([O-])c1cccc(S(=O)(=O)Nc2cc(Br)c(O)c3ccccc23)c1`, the IC50 was 5.32 µg/mL (≈ 12.6 µM).
Take `CC(=O)Cc1nc(-c2ccccc2)no1`: the IC50 is > 50 µg/mL (inactive).
As to `CCc1ccc(C(=O)NC(=S)Nc2ccc(Cc3ccncc3)cc2)cc1`, the IC50 is 10.9 µg/mL (≈ 29.1 µM).
As for `Cc1ccc(-c2ccc(/C=C/C(=O)c3ccco3)o2)cc1`, the figure is 1.71 µg/mL (≈ 6.14 µM); as for `CCc1ccc(Nc2ncnc3ccc(Br)cc23)cc1`, 4.16 µg/mL (≈ 12.7 µM); as for `CN(C)c1ccc(Nc2nc(-c3ccccn3)cs2)cc1`, 0.74 µg/mL (≈ 2.5 µM).
As to `Cc1cc(C)cc(-c2nc(-c3cccnc3)no2)c1`, the IC50 was 47.7 µg/mL (≈ 190 µM).
The figure for `Cc1ccc(NC(=O)C(=O)NNC(=O)c2ccco2)cc1Cl` is 1.41 µg/mL (≈ 4.38 µM); for `CCOC(=O)c1cnc2ccc(OC)cc2c1Nc1ccc2c(c1)OCCO2` it is 2.9 µg/mL (≈ 7.62 µM); for `CC(C)(C)c1ccc(C(=O)Nc2cccc(NC(=O)c3cccs3)c2)cc1` it is 2.28 µg/mL (≈ 6.02 µM).
The figure for `O=[N+]([O-])c1cccc(NC(=S)Nc2ccc(Cl)c(C(F)(F)F)c2)c1` is 2.62 µg/mL (≈ 6.97 µM); for `CSc1ncc(C(=O)NCc2ccco2)cn1` it is 3.04 µg/mL (≈ 12.2 µM).
As for `CC(C)OC(=O)C(C)Oc1ccc(C(=O)NCCc2ccccc2)cc1` (stereo not given), the figure is 48.3 µg/mL (≈ 136 µM); as for `Cc1ccc2c(c1)c1c(n2CC(O)CN2CCCCCC2)C(=O)CCC1` (stereo not given), 6.18 µg/mL (≈ 17.4 µM); as for `COc1cc([N+](=O)[O-])ccc1NC(=S)Nc1ccc(OC(F)F)c(Cl)c1`, 3.41 µg/mL (≈ 8.44 µM).
Consider `O=C(NNC(=S)NCc1ccc(F)cc1)c1ccncc1`, for which the IC50 was 5.78 µg/mL (≈ 19 µM).
As for `O=c1c2c(-c3ccc(Cl)cc3)csc2nc2c3ccccc3c(NCCN3CCOCC3)nn12`, the figure is 11.2 µg/mL (≈ 22.8 µM); as for `c1ccc(-n2nnnc2Oc2cccc3cccnc23)cc1`, 5.68 µg/mL (≈ 19.6 µM); as for `Cc1ccc(-c2nn(-c3cc(N4CCN(C)CC4)ccc3[N+](=O)[O-])c(=O)c3ccccc23)cc1`, 8.15 µg/mL (≈ 17.9 µM).
With `O=C(NCC1COc2ccccc2O1)c1ccc(NC(=O)C2COc3ccccc3O2)cc1` (stereo not given), the half-inhibitory concentration (IC50) was 1.94 µg/mL (≈ 4.35 µM).
The figure for `CC(NC(=O)NNC(=O)c1ccncc1)(C(F)(F)F)C(F)(F)F` is 0.18 µg/mL (≈ 0.523 µM); for `COc1ccc(CNCCC(c2ccc(OC)cc2)c2ccccc2OC)cc1` (stereo not given) it is 8 µg/mL (≈ 20.4 µM).
With `O=C(Oc1ccc(F)cc1)c1ccc(Oc2ccc([N+](=O)[O-])cc2)cc1`, the IC50 was 1.12 µg/mL (≈ 3.17 µM).
On to `COC(=O)C(C)Oc1ccc2c(=O)c(Oc3ccc(OC)cc3)coc2c1` (stereo not given), for which the IC50 was 5.99 µg/mL (≈ 16.2 µM).
The figure for `Cc1cc(C)nc(/N=C(/N)Nc2ccc(OCc3ccccc3)cc2)n1` is 4.64 µg/mL (≈ 13.4 µM); for `O=C(Nc1ccc(-c2nc3ccccc3c(=O)o2)cc1)C1CCCCC1` it is 23.9 µg/mL (≈ 68.7 µM); for `O=C(Oc1ccccc1)c1cccc(COC(=O)c2cc3ccccc3oc2=O)c1` it is 15.8 µg/mL (≈ 39.5 µM).
The figure for `COC(=O)C1=C(C)N(c2cc(Cl)cc(Cl)c2)C(=O)C1` is 6.04 µg/mL (≈ 20.1 µM); for `O=C(CC1(O)C(=O)N(CCc2ccccc2)c2ccc(Cl)cc21)c1cccnc1` (stereo not given) it is 6.05 µg/mL (≈ 14.9 µM).
The figure for `Cc1ccc(SCC(=O)Nc2ccc(C)c(C)c2)cc1` is 3.4 µg/mL (≈ 11.9 µM); for `O=[N+]([O-])/C=C/c1cccn1-c1ccc(F)cc1` it is 7.57 µg/mL (≈ 32.6 µM).
As to `CC1=CC(C)(C)Nc2ccc(OC(=O)c3cccs3)cc21`, the IC50 was 3.02 µg/mL (≈ 10.1 µM).
`O=C(Nc1cc(Cl)ccc1O)c1cc(Cl)ccc1Cl`: the IC50 was 12.2 µg/mL (≈ 38.5 µM).
The figure for `CC(=O)c1cccc(NC(=S)NC(=O)c2ccc(C(C)(C)C)cc2)c1` is 12.5 µg/mL (≈ 35.3 µM).
For `Cc1c(Cl)cccc1NC(=O)c1ccc(OC(C)C(=O)OC2CCCCC2)cc1` (stereo not given), the IC50 is less than 0.1 µg/mL.
For `CCc1cc2c(=O)oc(-c3ccc(F)cc3)nc2s1`, the IC50 was > 50 µg/mL (inactive).
For the compound `CCCCOc1ccc(S(=O)(=O)Nc2ccc(I)cc2)cc1`, the IC50 was 2.84 µg/mL (≈ 6.58 µM).
With `CCc1ccc(OCC(=O)Nc2cccc(F)c2)cc1`, the IC50 is 1.74 µg/mL (≈ 6.37 µM).
The figure for `COc1cccc(NC(=O)CSc2nnc(-c3ccc(Br)cc3)o2)c1` is 3.12 µg/mL (≈ 7.42 µM).
`CCOC(=O)C(C)Oc1ccc2c(=O)c(-c3ccc(Br)cc3)coc2c1` (stereo not given): the IC50 was > 50 µg/mL (inactive).
The figure for `O=C(Nc1ccc(Cl)c(C(F)(F)F)c1)C1CCN(C(=O)c2ccc(Br)cc2)CC1` is 7.21 µg/mL (≈ 14.7 µM); for `CC(C)(C)n1cnc2cc(NC(=O)c3ccc(Cl)cc3)ccc21` it is 0.99 µg/mL (≈ 3.02 µM); for `COc1ccc(CNc2ccc3c(c2)ncn3-c2ccccc2)cc1OC` it is 8.63 µg/mL (≈ 24 µM).
For the compound `CCN(CC)c1ncnc2c1sc1nc(C)cc(C)c12`, the IC50 is > 50 µg/mL (inactive).
